Where no end group is shown, it is not given here.

In series [1] the test system is human hepatoma cells (HepG2). Kind of series: In vitro anti-tumor activity, MTT assay, HepG2. The format is cell-based. The following applies: HepG2, 48 h, read-out: HepG2 (IC50, μM). On the procedure: Formulation of DMEM low glucose medium: HyClone MEM low glucose medium, 500 mL per bottle, add 10% fetal bovine serum and 1% solution of penicillin, stored in a refrigerator at 4° C.
(§1) Preparation of MTT solution: MTT dry powder 0.5 g was dissolved in 100 mL PBS buffer, filtered and sterilized with a […] filter, and placed in a refrigerator at −12° C. for storage.
(§2) Three types of tumor cells used in the assay for antitumor activity are human hepatoma cells (HepG2), leukemia cells (K562) and human colon cancer cells (HCT116).
Human Hepatocarcinoma Cell (HepG2) Test
The culture medium for HepG2 cells was DMEM cell culture medium containing 1% penicillin-streptomycin solution and 10% fetal bovine serum, and the culture condition was 37° C. and a constant temperature incubator containing 5% CO2. Specific steps:
The cells were counted using a hemocytometer and diluted with DMEM low glucose to 5×10^4 cells/mL.
(§3) Add 100 μL of cell suspension to each well of a 96-well plate, mix, incubated at 37° C. for 24 h.
(§4) The desired test compounds were diluted to 5 concentrations: 2 mM, 0.2 mM, 20 μM, 2 μM, 0.2 μM, and 0.5 μL/well was sequentially added according to the concentration, incubated at 37° C. for 48 h.
(§5) MTT was added at a concentration of 5 mg/mL, incubated at 37° C. for 4 h.
Cells were lysed by addition of DMSO, and the OD values at 490 nm and 630 nm were measured with a microplate reader. […]

In the next series the test system is leukemia cells (K562). Briefly: In vitro anti-tumor activity, MTT assay, K562. To be noted: Homo sapiens, K562, 48 h, read-out: K562 (IC50, μM). It counts as cell-based. On the procedure:
as §1, §2
K562 cells were cultured in RPMI1640 cell culture medium containing 1% penicillin-streptomycin solution, 10% fetal bovine serum, and incubated at 37° C. in a constant temperature incubator containing 5% CO2. Specific steps:
The cells were counted using a hemocytometer and diluted to 5×10^4 cells/mL with RPMI medium;
100 μL of cell suspension was added to each well of a 96-well plate, incubated at 37° C. for 2 h.
as §4
MTT was added at a concentration of 5 mg/mL, incubated at 37° C. for 4 hours.
Isopropanol and hydrochloric acid lysis were added, and the OD values at 570 nm and 630 nm were measured with a microplate reader.
(§6) Processing data, calculate IC50 value according to OD value.

In series [2] the test system is human colon cancer cells (HCT116). Briefly: In vitro anti-tumor activity, MTT assay, HCT116. The format is cell-based. To be noted: HCT-116, 48 h, read-out: HCT116 (IC50, μM). The procedure: Preparation of DMEM/F-12 culture broth: HyClone MEM/F-12 medium, 500 mL per bottle, add 10% fetal bovine serum and 1% solution of penicillin, stored in a refrigerator at 4° C.
as §1, §2
Human colon cancer cell HCT116 test
The culture fluid used for HCT116 cells was a DMEM/F-12 cell culture solution containing 1% penicillin-streptomycin solution, 10% fetal bovine serum. Specific steps:
The cells were counted using a hemocytometer and diluted with DMEM/F-12 medium to 5×10^4 cells/mL.
as §3, §4, §5
Cells were lysed by addition of DMSO, and the OD values at 490 nm and 630 nm were measured with a microplate reader.
as §6

For series [3], the system named is E-selectin mediated adhesion of THP-I to HUVECs. Kind of series: Adhesion test of human acute monocytic leukemia cells and endothelial cells. The format is cell-based. The following applies: THP-I on TNF-α stimulated HUVECs, FIG. 4. The procedure:
Example 3. Adhesion Test of Compounds Against Human Acute Monocytic Leukemia Cells and Endothelial Cells
Endothelial cell line HUVEC and human acute monocytic leukemia cell line THP-I were purchased from ATCC and cultured at 37° C. in a 5% CO2 saturated humidity medium, which contains 10% fetal bovine serum, RPMI 1640 with 100 μg/mL penicillin and F-12 with 100 μg/mL streptomycin, the cells were used at logarithmic growth phase.
Polylysine (20 μg/ml) (Shanghai Yuanye Biotechnology Co., Ltd.) was coated on a black 96-well cell culture plate (Corning Incorporated costar 3603) and incubated at 37° C. for 12 h. Endothelial cells HUVECs were seeded at a concentration of […] in black 96-well cell culture plates. After incubation at 37° C. for 36 h, the medium in the cell culture plates was removed. The experimental group was added with F-12 medium with 20 ng/ml TNF-α, F-12 medium without TNF-α was added to the control group, all the groups were incubated for 6 h at 37° C. […] 100 μl permeation solution (BIOSHARP) was added to each well and fluorescence was measured with a Synergy 4 Multiplate Reader (Biotek) (Ex, 485 nm; Em, 528 nm). The inhibitory effect of the candidate compound is inversely proportional to the fluorescence intensity, and the lower the fluorescence value, the stronger the inhibition effect of the compound.

Series [4] can be described thus: Self-assembly in aqueous solution (proton NMR in DMSO-d6 vs D2O). To be noted: HCPT NMR signals disappear in D2O. The format is physicochemical. From the text:
The micelles enclose the hydrophobic structure inside. […] This phenomenon also exists in the conjugate of PEG and HCPT, and it is confirmed by dynamic light scattering and transmission electron microscopy, which showing it can form nanospheres or nanorods with about 200 nm diameter.

In the case of `CC[C@@]1(O)C(=O)OCc2c1cc1n(c2=O)Cc2cc3cc(O)ccc3nc2-1` [HCPT, 10-hydroxycamptothecin], the IC50 (in series [1]; with leukemia cells (K562); in series [2]) was less than 1 µM each time.
As for “Compound 9 (CIELLQAR-OH; also: Cys1 connects to remainder of compound 9 through SH and amino group)”, the “anti-E-selectin mediated cell adhesion in vitro” value in series [3] was “significant anti-E-selectin mediated cell adhesion”. Also, the “self-assembly in aqueous solution” value in series [4] is reported as “self-assembled into nano-micelles”.

For the origin of these results see patent publication US11413281B2, “Ternary conjugate of antitumor drug, and synthesis and application” (priority 2016, dated 2022).
